Source: patent US20050259249A1, “Nonlinear optical detection of fast cellular electrical activity” (priority 2004, published 2005)
“Also recorded” adds a separate entry of the source. Where a name gives a salt, the structure may show the parent alone.

Experiments:
mossy fibers = assay: Pharmacology: SHG from mossy fibers of acute hippocampal slices after cytoskeleton-depolymerizing drugs; type: cell-based, rat; details: for Effect on SHG from mossy fibers compared to the control: cytochalasin D 1 μM or nocodazole 25 μM, solvent control
Source text: SHG and TPF microscopy were simultaneously performed on either a Bio-Rad MRC 1024 or Radiance scan head on a modified inverted Olympus IX-70 microscope (FIG. 1). The excitation source was a mode-locked Ti:Sapphire laser (˜100 fs pulses at 80 MHz) (Spectra-Physics) pumped by a 5 W solid state Millennia laser (Spectra-Physics). The laser polarization was controlled via a Berek polarization compensator (New Focus, San Jose, Calif.) and the beam focused into the sample with one of the following (overfilled back aperture) objectives: Zeiss C-Apochromat 10×/0.45 NA, Olympus UApo 20×/0.7 NA, Zeiss Fluar 20×/0.75 NA, Olympus UApo 40×/1.15 NA, Zeiss Fluar 40×/1.3 NA. The resultant SHG was collected in the transmitted (forward) direction with an Olympus XLUMPlanFl 20×/0.95 NA objective, while the TPF was epi-collected through the excitation objective. A combination of dichroic mirrors, band-pass and blue-glass filters (Chroma Technology, Brattleboro, Vt.) and polarization analyzers (Newport) separated the signals for detection with Bialkali photo-multiplier tubes (PMTs) (Hammamatsu). The excitation wavelength, average excitation intensity (<I>) at the sample, and two-photon 1/e radial Gaussian beam waist approximation (w) (Richards et al., Proc Royal Soc London Series A-Mathematical Physical Sciences 253:358-379 (1959), which is hereby incorporated by reference in its entirety) are given with the figures. The average power at the sample is (<I>·π·w^2). The images are temporally summed over several scans at dwell times ˜10-100 μs/μm^2. Confocal imaging was performed on the same microscope, but using an argon-krypton laser for excitation. […]
The slices were transferred from the static incubation bath to a static ASCF bath on the microscope stage. […] The average intensities from the three groups were calculated and compared for statistical significance with a T-test.

cultured Aplysia neurons = assay: SHG line scan recording of Vm in dye-stained cultured Aplysia neurons under voltage clamp; type: cell-based, Aplysia californica; details: 8 μM dye extracellular perfusion, 940 nm excitation, two-electrode voltage clamp
Procedure: Abdominal and cerebral ganglia from up to 15 different 5-10 g Aplysia californica were dissociated and cultured with like ganglia (i.e., abdominal with abdominal, cerebral with cerebral) according to Banker and Goslin (i.e., Banker et al., Culturing Nerve Cells, 2nd Edition, Cambridge, Mass.: MIT Press (1998), which is hereby incorporated by reference in its entirety). The cultures were grown in MatTek glass bottom dishes (MatTek Corp., Ashland, Mass.) at 17-18 C. For recordings, 4 to 14 day old cultures were used.
For staining and imaging, 4-[[4-(dihexylamino)phenyl]]ethynyl]-1-(4-sulfobutyl)pyridinium, inner salt (“DHPESBP”) (“Molecule B” from Moreaux et al., “Electro-Optic Response of Second-Harmonic Generation Membrane Potential Sensors,” Optics Letters 28:625-627 (2003), which is hereby incorporated by reference in its entirety) was used, because of its proven fast (<150 μs) response to Vm. SHG from giant unilamellar vesicles stained with this molecule was sensitive to Vm on fast time scales through an electrochromic (rather than reorientational) mechanism (Moreaux et al., “Electro-Optic Response of Second-Harmonic Generation Membrane Potential Sensors,” Optics Letters 28:625-627 (2003), which is hereby incorporated by reference in its entirety). […]

[1] = electrochromic mechanism; from Moreaux et al., Optics Letters 28:625-627 (2003); cited from earlier work
[2] = tested on: neurons in the hippocampal region; assay: SHG line scan recording of membrane potential in dye-filled neurons of acute brain slices; type: cell-based, rat; details: neurons filled with dye via patch pipette, ~1060 nm/~300 fs laser pulses, voltage steps at the soma
Source text: SHG microscopy is emerging as a powerful new method to optically record membrane potential changes of active neurons. […] This technique has been applied to acute rat brain slices by patch clamping and filling neurons in the hippocampal region with the dye FM4-64. […] The SHG signal emanates from the plasma membrane with little background from intra- or extracellular regions. […] Additionally, it has been shown that a backward propagating SHG signal exists (Forward/Backward ratio ˜6).
Repeated line scanning of the SHG signal was used to optically record action potentials (signal to noise ratio (S/N) ˜5-8 by temporal averaging of ˜50 line scans) on somatic membranes. Voltage steps were applied at the soma and the SHG response was recorded in the dendritic arbor >100 μm deep in slice. Dendritic spines were clearly visible, possibly making the recording of membrane potential transients from these compartments feasible. […] The line scan averaging necessary to increase S/N was accomplished in minutes. […] In addition to patch clamping, it was shown that extracellular micropipette pressure injection of the dye into hippocampal cell layers leads to SHG labeling of many tens of neurons.

C=C1[C@@H](C)[C@H]2[C@H](Cc3ccccc3)NC(=O)[C@]23[C@H](OC(C)=O)/C=C/[C@@](C)(O)C(=O)[C@@H](C)C/C=C/[C@H]3[C@@H]1O [Cytochalasin D]
Effect on SHG from mossy fibers compared to the control (mossy fibers): did not affect the SHG; also recorded: no significant effect

CCCCCCN(CCCCCC)c1ccc(C#Cc2cc[n+](CCCCS(=O)(=O)[O-])cc2)cc1 [DHPESBP, 4-[[4-(dihexylamino)phenyl]ethynyl]-1-(4-sulfobutyl)pyridinium, inner salt]
SHG signal change as a function of change in membrane potential (linear response) (cultured Aplysia neurons): ~6 %/100 mV
Response time of SHG to Vm [1]: < 150 μs

CCN(CC)c1ccc(C=CC=CC=Cc2cc[n+](CCC[N+](CC)(CC)CC)cc2)cc1.[Br-].[Br-] [FM4-64, N-(3-triethylammoniumpropyl)-4-(6-(4-(diethylamino)phenyl)hexatrienyl)pyridinium dibromide]
SHG signal linear response to membrane potential [2]: ~7.7 %/100 mV

COC(=O)Nc1nc2ccc(C(=O)c3cccs3)cc2[nH]1 [nocodazole, Nocodazole]
SHG from the mossy fibers after addition of the drug, relative to its original value (mossy fibers; continuous treatment, nocodazole 25 μM, imaged for 70 min, 34° C., 4 slices): ~39%
Effect on SHG from mossy fibers compared to the control (mossy fibers): drastic
